According to patent US7893045B2, “Methods for treating lymphomas in certain patient populations and screening patients for said therapy” (Celgene Corporation, priority 2007, dated 2011):

Experiments:
aggressive NHL [1] = experiment: Study 1 and 2 taken together: response by predictive factors; assay type: in vivo, human
[2] = tested on: relapsed and refractory aggressive non-Hodgkin's lymphoma (NHL); experiment: Clinical Study 1: Phase II oral lenalidomide monotherapy in relapsed and refractory aggressive NHL; assay type: in vivo, human; conditions: for Median progression-free survival: FIG. 1
Method: A multi-center, open-label, Phase II study was conducted in patients with relapsed and refractory aggressive non-Hodgkin's lymphoma (NHL). The trial was designed for oral monotherapy with 3-(4-amino-1-oxo-1,3-dihydro-isoindol-2-yl)-piperidin-2,6-dione (Revlimid® or lenalidomide) in 49 patients with relapsed and refractory aggressive NHL following one or more prior treatment regimen with measurable disease. Patients in the study received lenalidomide in an amount of 25 mg orally once daily for days one to 21 in a 28-day cycle and continued therapy for 52 weeks as tolerated or until disease progression. A patient who achieved a complete response during the 52 week period was to receive two additional cycles of treatment prior to discontinuing treatment and entering the follow-up phase.
The patients who had received a median of 4 prior treatments (range: 1-7 prior treatments), were administered with lenalidomide in an amount of 25 mg orally once daily for 21 days in the treatment cycle of 28 days. Of the 49 patients, 26 had diffuse large cell lymphoma, 15 had mantle cell lymphoma, five patients had follicular lymphoma, and three had transformed lymphoma. Median time from diagnosis was 2.7 years (range 0.4-32) and patients had received a median of 4 (range […]) prior drug regimens for NHL. Ninety-three percent of the patients had received prior rituximab and 63% of the patients were rituximab refractory.

[3] = tested on: peripheral T-cell lymphomas (PTCL); experiment: Clinical Study 3: Phase II lenalidomide for peripheral T-cell lymphomas; assay type: in vivo; conditions: about 25 mg orally daily for 21 days followed by 7 days of rest; ten patients
Method: A multi-center, open label, phase II study was conducted to evaluate the efficacy of 3-(4-amino-1-oxo-1,3-dihydro-isoindol-2-yl)-piperidin-2,6-dione (lenalidomide) for peripheral T-cell lymphomas (PTCL). Patients with relapsed or refractory disease were eligible, as well as patients who had not previously had systemic therapy but who were ineligible for standard curative chemotherapy regimens due to comorbid illness. Each cycle (28 days) of treatment comprises administration of about 25 mg of 3-(4-amino-1-oxo-1,3-dihydro-isoindol-2-yl)-piperidin-2,6-dione (lenalidomide) given orally daily for 21 days followed by 7 days of rest, until disease progression, death or unacceptable toxicity.
Ten (9 males and 1 female) patients were enrolled. Median age of participants was 56 years (range, 42-76 years). Histologies of the patients included PTCL unspecified (n=4), angioimmunoblastic T-cell lymphoma (n=4), anaplastic large cell lymphoma (n=1), and gamma/delta T-cell lymphoma (n=1). Median number of prior lines of systemic therapy was one (range, 0-3). Median number of cycles was two (range, 1-8).

aggressive NHL [4] = experiment: Clinical Study 2: lenalidomide monotherapy in aggressive NHL; assay type: in vivo, human
Method: In a separate clinical study, 86 patients received at least 25 mg of lenalidomide once daily on Days 1-21 every 28 days and continued therapy as tolerated or until disease progression. Forty-eight of these patients were evaluable for response assessment (Table 3). The median age was 65 years. The most common histology was DLBCL (63%). The median time from diagnosis to lenalidomide treatment was 2 years. Patients received a median of 4 prior treatment regimens for NHL. Median time from last rituximab treatment was 297 days. […] Ninety-six percent of the patients had received prior rituximab.

[5] = Study 1 and 2, time from rituximab <230 days, 40 patients
[6] = Study 1 and 2, time from rituximab ≧230 days, 57 patients
[7] = Study 1 and 2, tumor burden <50 cm^2, 66 patients
[8] = Study 1 and 2, tumor burden ≧50 cm^2, 29 patients
[9] = Aggressive, n=49, 25 mg orally once daily days 1-21 of 28-day cycle
[10] = DLBCL, n=26, 25 mg daily days 1-21 of 28
[11] = FCL, n=5, 25 mg daily days 1-21 of 28
[12] = MCL, n=15, 25 mg daily days 1-21 of 28
[13] = TSF, n=3, 25 mg daily days 1-21 of 28
[14] = of fourteen patients with SD at cycle 2
[15] = the four rituximab naïve patients
[16] = Aggressive NHL, 48 evaluable patients, at least 25 mg once daily Days 1-21 every 28 days
[17] = Diffuse large B-cell, 30 patients
[18] = Follicular center lymphoma grade 3, 1 patient
[19] = Mantle cell lymphoma, 14 patients
[20] = Transformed lymphoma, 3 patients

Nc1cccc2c1CN(C1CCC(=O)NC1=O)C2=O (centres unmarked) [lenalidomide, 3-(4-amino-1-oxo-1,3-dihydro-isoindol-2-yl)-piperidine-2,6-dione]
Responders (aggressive NHL [1]; Study 1 and 2, Favorable = tumor burden <50 cm^2 and time since last rituximab ≧230 days, 43 patients): 26
Response Rate (ORR) (aggressive NHL [1]; Study 1 and 2, Favorable = tumor burden <50 cm^2 and time since last rituximab ≧230 days, N=43): 60%
Responders (aggressive NHL [1]; Study 1 and 2, Unfavorable = tumor burden ≧50 cm^2 and/or time since last rituximab <230 days, 54 patients): 4
Response Rate (ORR) (aggressive NHL [1]; Study 1 and 2, Unfavorable = tumor burden ≧50 cm^2 and/or time since last rituximab <230 days, N=54): 7.4%
Responders (aggressive NHL [1]; [5]): 2
Response Rate (aggressive NHL [1]; [5]): 5%
Responders (aggressive NHL [1]; [6]): 28
Response Rate (aggressive NHL [1]; [6]): 49%
Responders (aggressive NHL [1]; [7]): 28
Response Rate (aggressive NHL [1]; [7]): 42%
Responders (aggressive NHL [1]; [8]): 2
Response Rate (aggressive NHL [1]; [8]): 6.9%
duration of response (aggressive NHL [1]; Study 1 and 2 taken together): approximately 6 months
Response Rate (aggressive NHL [1]; Study 1 and 2 taken together, all patients): 31%
side effects (aggressive NHL [1]; Study 1 and 2 taken together, monotherapy in aggressive NHL): manageable hematological side effects
response to lenalidomide ([2]; <230 days since last rituximab therapy): 6%
response to lenalidomide ([2]; >=230 days since last rituximab therapy): 52%
CR, complete response (patients) [2, 9]: 2
CRu, complete response unconfirmed (patients) [2, 9]: 4
PD, progressive disease (patients) [2, 9]: 21
PR, partial response (patients) [2, 9]: 11
RR, response rate [2, 9]: 35%
CR, complete response (patients) ([2]; DLBCL, diffuse large B-cell lymphoma, n=26, 25 mg daily days 1-21 of 28): 1
CRu, complete response unconfirmed (patients) [2, 10]: 2
PD, progressive disease (patients) [2, 10]: 14
PR, partial response (patients) [2, 10]: 2
RR, response rate [2, 10]: 19%
CR, complete response (patients) ([2]; FCL, follicular-center lymphoma, n=5, 25 mg daily days 1-21 of 28): 0
CRu, complete response unconfirmed (patients) [2, 11]: 1
PD, progressive disease (patients) [2, 11]: 2
PR, partial response (patients) [2, 11]: 2
RR, response rate [2, 11]: 60%
CR, complete response (patients) ([2]; MCL, mantle cell lymphoma, n=15, 25 mg daily days 1-21 of 28): 1
CRu, complete response unconfirmed (patients) [2, 12]: 1
PD, progressive disease (patients) [2, 12]: 5
PR, partial response (patients) [2, 12]: 6
RR, response rate [2, 12]: 53%
CRu, complete response unconfirmed (patients) [2, 13]: 0
PD, progressive disease (patients) [2, 13]: 0
PR, partial response (patients) [2, 13]: 1
RR, response rate [2, 13]: 33%
CR, complete response (patients) ([2]; TSF, transformed lymphoma, n=3, 25 mg daily days 1-21 of 28): 0
response to lenalidomide ([2]; absolute lymphocyte count <=0.6×10^9/L): 9%
response to lenalidomide ([2]; absolute lymphocyte count >0.6×10^9/L): 42%
patients with initial PR at 2 cycles who went on to CR/CRu with continued treatment ([2]; continued treatment): four
Response Rate ([2]; favorable values of disease burden, absolute lymphocyte count and time since last rituximab (n=23)): 65%
patients with stable disease at the first (cycle 2) assessment ([2]; first assessment, cycle 2): Fourteen
response to lenalidomide ([2]; largest tumor lesion <=4.5 cm): 55%
response to lenalidomide ([2]; largest tumor lesion >4.5 cm): 5%
patients with SD or PR at first assessment who improved their response with continued treatment ([2]; of 28 patients): seven
share of patients with SD or PR at first assessment who improved their response ([2]; of 28 patients): 25%
patients with an objective response ([2]; of 49 patients): Seventeen
patients with SD at first assessment who went on to exhibit a response with continued treatment [2, 14]: three
share of patients with SD at first assessment who went on to exhibit a response [2, 14]: 21%
response to lenalidomide ([2]; patients not refractory to rituximab): 31%
response to lenalidomide ([2]; patients refractory to rituximab): 30%
Median progression-free survival ([2]; patients with favorable prognostic values): 7.5 months
Median progression-free survival ([2]; patients with poor prognostic factors): 1.9 months
patients with CR [2, 15]: two
patients with PR [2, 15]: 1
patients with SD [2, 15]: 1
response to lenalidomide ([2]; tumor burden <50 cm^2): 52%
response to lenalidomide ([2]; tumor burden >=50 cm^2): 0%
Response Rate ([2]; unfavorable values for these prognostic values (n=26)): 8%
Median progression-free survival ([2]; whole group (all patients), Kaplan-Meier): 3.7 months
efficacy in peripheral T-cell lymphomas [3]: effective in treating peripheral T-cell lymphomas
tolerability of therapy [3]: generally been well tolerated
response to lenalidomide (aggressive NHL [4]; <230 days from rituximab to lenalidomide treatment): 5%
ORR, overall response rate (aggressive NHL [4]; [16]): 27%
PD, progressive disease (patients) (aggressive NHL [4]; [16]): 25
PR, partial response (patients) (aggressive NHL [4]; [16]): 12
CR, complete response (patients) (aggressive NHL [4]; [17]): 1
ORR, overall response rate (aggressive NHL [4]; [17]): 20%
PD, progressive disease (patients) (aggressive NHL [4]; [17]): 19
PR, partial response (patients) (aggressive NHL [4]; [17]): 5
CR, complete response (patients) (aggressive NHL [4]; [18]): 0
ORR, overall response rate (aggressive NHL [4]; [18]): 100%
PD, progressive disease (patients) (aggressive NHL [4]; [18]): 0
PR, partial response (patients) (aggressive NHL [4]; [18]): 1
CR, complete response (patients) (aggressive NHL [4]; [19]): 0
ORR, overall response rate (aggressive NHL [4]; [19]): 36%
PD, progressive disease (patients) (aggressive NHL [4]; [19]): 9
PR, partial response (patients) (aggressive NHL [4]; [19]): 5
CR, complete response (patients) (aggressive NHL [4]; [20]): 0
ORR, overall response rate (aggressive NHL [4]; [20]): 33%
PD, progressive disease (patients) (aggressive NHL [4]; [20]): 1
PR, partial response (patients) (aggressive NHL [4]; [20]): 1
ORR (aggressive NHL [4]; favorable values for both tumor burden and time from rituximab (N=19)): 53%
response to lenalidomide (aggressive NHL [4]; tumor burden <50 cm^2): 33%
response to lenalidomide (aggressive NHL [4]; tumor burden ≧50 cm^2): 14%
ORR (aggressive NHL [4]; unfavorable values (N=29)): 10%
response to lenalidomide (aggressive NHL [4]; ≧230 days from rituximab to lenalidomide treatment): 46%
